Results on one molecule are retold here after patent US7160508B2, “Personal care products having elastomeric portions” (The Gillette Company, priority 2001, dated 2007).

The assay is described as follows: Minimum inhibitory concentration (agar plate dilution, molds). It counts as cell-based. The settings on record: 168 h; lowest concentration in sterile water and agar with no growth visible to the naked eye after 7 days at 27±2° C. An excerpt: Preferred antimicrobial agents will inhibit mold growth at relatively low concentrations of antimicrobial agent, i.e., preferred antimicrobial agents will have a low “minimum inhibitory concentration” (MIC), measured as parts per million (ppm) concentration in sterile water and agar using the test procedure discussed below. If the MIC is high, a high concentration of antimicrobial agent will generally be necessary in order to obtain sufficient antifungal activity, resulting in increased cost and a potential adverse affect on the properties of the elastomeric material. For example, high concentrations of antifungal agent may tend to increase the hardness of the thermoplastic elastomer. Preferred antimicrobial agents have an MIC of less than about 100 ppm.
Minimum inhibitory concentration is measured by diluting the antimicrobial agent in sterile water to obtain a plurality of solutions having a range of concentrations. 1 ml of each of the solutions is added to 9 ml portions of molten agar to give a final volume of 10 ml, and immediately poured to form plates. […] The plates are incubated at 27±2° C. and analyzed for growth at 3, 5 and 7 days. […]

Structures are written as SMILES. Converted amounts (≈) assume the structure as drawn.

Consider `CCCCCCCCn1sc(Cl)c(Cl)c1=O` [4,5-dichloro-2-n-octyl-4-isothiazolin-3-one], for which the MIC was about 50 µg/mL (≈ 177 µM).
